Experimental data: the NIST ThermoML archive (doi:10.1016/j.jct.2009.01.006)

Assays:
[1] = refractive index (Na D-line) (dimensionless); conditions: 298.15 K; 101.33 kPa; Liquid; Standard Abbe refractometry
[2] = 303.15 K; for speed of sound: Linear variable-path acoustic interferometer
[3] = φn = volume fraction of the nth substance listed; conditions: 303.15 K, 101 kPa, Liquid; for speed of sound: Linear variable-path acoustic interferometer
[4] = xn = mol fraction of the nth substance listed; conditions: 303.15 K, 101 kPa, Liquid, Direct dilatometry

CC(=O)CC(C)C [4-methylpentan-2-one]
Conditions	refractive index
[1]	1.3935

[2], Liquid
Conditions	mass density [kg/m3]	speed of sound [m/s]
101 kPa	791.24	1168
101.33 kPa	791.25	1172

CC(=O)CC(C)C [4-methylpentan-2-one] + CN1CCCC1=O
Conditions	excess molar volume [m3/mol]	mass density [kg/m3]	speed of sound [m/s]
[3], φ2 = 0	–	791.24	1168
[3], φ2 = 0.0946	–	814.41	1198
[3], φ2 = 0.1879	–	836.88	1232
[3], φ2 = 0.2615	–	854.5	1259
[3], φ2 = 0.3961	–	886.44	1310
[3], φ2 = 0.4444	–	897.82	1332
[3], φ2 = 0.6087	–	936.2	1385
[3], φ2 = 0.7236	–	962.58	1422
[3], φ2 = 0.8232	–	985.02	1456
[3], φ2 = 0.8989	–	1001.74	1491
[4], x2 = 0.0682	-1.09e-07	–	–
[4], x2 = 0.1202	-1.82e-07	–	–
[4], x2 = 0.2327	-2.88e-07	–	–
[4], x2 = 0.3164	-3.49e-07	–	–
[4], x2 = 0.3727	-3.78e-07	–	–
[4], x2 = 0.4616	-4.11e-07	–	–
[4], x2 = 0.5111	-4.22e-07	–	–
[4], x2 = 0.5711	-4.24e-07	–	–
[4], x2 = 0.6703	-4.15e-07	–	–
[4], x2 = 0.7739	-3.58e-07	–	–
[4], x2 = 0.8589	-2.73e-07	–	–
[4], x2 = 0.9208	-1.79e-07	–	–
[4], x2 = 0.9675	-9.3e-08	–	–

CN1CCCC1=O [N-methylpyrrolidone]
Conditions	refractive index
[1]	1.4674

[2]
Conditions	mass density, 101 kPa [kg/m3]	mass density, 101.33 kPa [kg/m3]	speed of sound, 101.33 kPa [m/s]
Crystal	–	1023.4	–
Liquid	1023.4	–	1552

CN1CCCC1=O [N-methylpyrrolidone] + CC(=O)CC(C)C
[3], φ1 = 1
Conditions	mass density [kg/m3]	speed of sound [m/s]
–	1023.4	1552

CN1CCCC1=O [N-methylpyrrolidone] + CCC(=O)CC
[3], φ1 = 1
Conditions	mass density [kg/m3]	speed of sound [m/s]
–	1023.4	1552

CN1CCCC1=O [N-methylpyrrolidone] + CCC(C)=O
Conditions	speed of sound [m/s]
[3], φ1 = 1	1552

CN1CCCC1=O [N-methylpyrrolidone] + CCCC(C)=O
[3], φ1 = 1
Conditions	mass density [kg/m3]	speed of sound [m/s]
–	1023.4	1552

CN1CCCC1=O [N-methylpyrrolidone] + O=C1CCCCC1
[3], φ1 = 1
Conditions	mass density [kg/m3]	speed of sound [m/s]
–	1023.4	1552

CCC(C)=O [butanone]
Conditions	refractive index
[1]	1.377

[2], Liquid
Conditions	mass density [kg/m3]	speed of sound [m/s]
101 kPa	794.51	1167
101.33 kPa	794.5	1168

CCC(C)=O [butanone] + CN1CCCC1=O
Conditions	excess molar volume [m3/mol]	speed of sound [m/s]
[3], φ2 = 0	–	1167
[3], φ2 = 0.1517	–	1214
[3], φ2 = 0.2207	–	1245
[3], φ2 = 0.2988	–	1282
[3], φ2 = 0.426	–	1345
[3], φ2 = 0.5205	–	1391
[3], φ2 = 0.5952	–	1421
[3], φ2 = 0.7078	–	1456
[3], φ2 = 0.8167	–	1483
[3], φ2 = 0.9184	–	1519
[4], x2 = 0.0705	-7.1e-08	–
[4], x2 = 0.1436	-1.42e-07	–
[4], x2 = 0.2097	-1.89e-07	–
[4], x2 = 0.2854	-2.44e-07	–
[4], x2 = 0.4102	-2.93e-07	–
[4], x2 = 0.5043	-3.02e-07	–
[4], x2 = 0.5795	-2.96e-07	–
[4], x2 = 0.6942	-2.56e-07	–
[4], x2 = 0.8068	-1.89e-07	–
[4], x2 = 0.9134	-9.8e-08	–
[4], x2 = 0.9545	-5.1e-08	–

O=C1CCCCC1 [cyclohexanone]
Conditions	refractive index
[1]	1.4501

[2], Liquid
Conditions	mass density [kg/m3]	speed of sound [m/s]
101 kPa	937.58	1386
101.33 kPa	937.55	1385

O=C1CCCCC1 [cyclohexanone] + CN1CCCC1=O
Conditions	excess molar volume [m3/mol]	mass density [kg/m3]	speed of sound [m/s]
[3], φ2 = 0	–	937.58	1386
[3], φ2 = 0.1156	–	947.92	1392
[3], φ2 = 0.2076	–	954.74	1402
[3], φ2 = 0.3053	–	962.9	1415
[3], φ2 = 0.4073	–	971.45	1426
[3], φ2 = 0.4984	–	979.17	1438
[3], φ2 = 0.5729	–	985.58	1454
[3], φ2 = 0.7078	–	997.22	1480
[3], φ2 = 0.7856	–	1004.04	1496
[3], φ2 = 0.9104	–	1015.17	1522
[4], x2 = 0.0657	2.7e-08	–	–
[4], x2 = 0.1238	4.6e-08	–	–
[4], x2 = 0.2207	7.1e-08	–	–
[4], x2 = 0.3217	9e-08	–	–
[4], x2 = 0.4262	1.13e-07	–	–
[4], x2 = 0.5178	1.21e-07	–	–
[4], x2 = 0.5918	1.18e-07	–	–
[4], x2 = 0.7236	1.09e-07	–	–
[4], x2 = 0.7984	9.4e-08	–	–
[4], x2 = 0.9166	5.2e-08	–	–
[4], x2 = 0.9604	3.2e-08	–	–

CCCC(C)=O [pentan-2-one]
Conditions	refractive index
[1]	1.3883

[2], Liquid
Conditions	mass density [kg/m3]	speed of sound [m/s]
101 kPa	796.54	1202
101.33 kPa	796.58	1197

CCCC(C)=O [pentan-2-one] + CN1CCCC1=O
Conditions	excess molar volume [m3/mol]	mass density [kg/m3]	speed of sound [m/s]
[3], φ2 = 0	–	796.54	1202
[3], φ2 = 0.1165	–	824.33	1231
[3], φ2 = 0.193	–	842.58	1254
[3], φ2 = 0.3417	–	877.77	1308
[3], φ2 = 0.4382	–	900.32	1345
[3], φ2 = 0.493	–	913.03	1367
[3], φ2 = 0.6094	–	939.74	1403
[3], φ2 = 0.7189	–	964.15	1429
[3], φ2 = 0.8475	–	991.98	1467
[3], φ2 = 0.9297	–	1009.18	1498
[4], x2 = 0.0776	-1.11e-07	–	–
[4], x2 = 0.1284	-1.74e-07	–	–
[4], x2 = 0.2108	-2.81e-07	–	–
[4], x2 = 0.2852	-3.59e-07	–	–
[4], x2 = 0.3669	-4.39e-07	–	–
[4], x2 = 0.4655	-4.98e-07	–	–
[4], x2 = 0.5205	-5.21e-07	–	–
[4], x2 = 0.5851	-5.28e-07	–	–
[4], x2 = 0.6353	-5.29e-07	–	–
[4], x2 = 0.7406	-4.68e-07	–	–
[4], x2 = 0.8612	-3.15e-07	–	–
[4], x2 = 0.9366	-1.67e-07	–	–
[4], x2 = 0.9769	-7.6e-08	–	–

CCC(=O)CC [pentan-3-one]
Conditions	refractive index
[1]	1.3902

[2], Liquid
Conditions	mass density [kg/m3]	speed of sound [m/s]
101 kPa	804.57	1198
101.33 kPa	804.62	1201

CCC(=O)CC [pentan-3-one] + CN1CCCC1=O
Conditions	excess molar volume [m3/mol]	mass density [kg/m3]	speed of sound [m/s]
[3], φ2 = 0	–	804.57	1198
[3], φ2 = 0.1401	–	837.52	1230
[3], φ2 = 0.2265	–	857.08	1252
[3], φ2 = 0.3711	–	889.22	1297
[3], φ2 = 0.423	–	900.7	1316
[3], φ2 = 0.5121	–	920.45	1347
[3], φ2 = 0.5666	–	932.49	1365
[3], φ2 = 0.6937	–	960.46	1415
[3], φ2 = 0.79	–	981.3	1452
[3], φ2 = 0.904	–	1004.83	1502
[4], x2 = 0.0634	-1.55e-07	–	–
[4], x2 = 0.1526	-2.89e-07	–	–
[4], x2 = 0.2446	-3.57e-07	–	–
[4], x2 = 0.3948	-3.98e-07	–	–
[4], x2 = 0.4476	-4.12e-07	–	–
[4], x2 = 0.5371	-4.2e-07	–	–
[4], x2 = 0.591	-4.22e-07	–	–
[4], x2 = 0.7146	-4.13e-07	–	–
[4], x2 = 0.7962	-3.45e-07	–	–
[4], x2 = 0.9124	-2.31e-07	–	–
[4], x2 = 0.9626	-1.06e-07	–	–
